From paper PMC11597167, “Evaluation of Selected Plant Phenolics via Beta-Secretase-1 Inhibition, Molecular Docking, and Gene Expression Related to Alzheimer’s Disease” (Pharmaceuticals, 2024)
Where two headings read alike, the source gives them in different places.

Key:
BACE1 = conditions: earlier study, cited from earlier work
SORL1 = experiment: RT-PCR gene expression in SH-SY5Y cells; type: cell-based, human; conditions: 24 h at IC08, vs DMSO control, normalized to β-actin
Procedure: (§1) In the RNA isolation protocol, cell pellets were homogenized using 1 mL of TRIzol reagent and incubated for 5 min at room temperature. Chloroform (200 μL) was added, and the mixture was shaken vigorously and incubated for 3 min at room temperature. The mixture was then centrifuged at 10,000 rpm for 15 min at +4 °C, and the upper colorless phase was transferred to an RNase-free microcentrifuge tube. Isopropanol (500 μL) was added to the tube, and the mixture was incubated at room temperature for 10 min and centrifuged at 10,000 rpm for 10 min. The supernatant was removed, and the pellet was washed with at least 75% ethanol (1 mL) and centrifuged at 7500 rpm for 5 min at +4 °C. After removing all of the supernatant from the tube and air-drying the pellet, the RNA-containing pellet was dissolved in approximately 100 μL of nuclease-free water and incubated at 55 °C for 5 min. RNA was stored at -80 °C for long-term storage. cDNA synthesis was performed using the ABM, OneScript® Plus cDNA synthesis kit (Applied Biological Materials Inc. (abm), Richmond, BC, Canada). A mixture of RNA (2000 ng/μL), dNTPs (1 μL), oligo (dT) primer (1 μL), […], and up to 13 μL of nuclease-free water was prepared and incubated at 65 °C for 5 min as described in the protocol supplied with the kit. After incubating the mixture on ice for 1 min, 4 μL of 5X RT buffer and 1 μL of OneScript® Plus RTase were added to the tube. The mixture was incubated at 50 °C for 50 min and 85 °C for 5 min. cDNA was stored at -20 °C for long-term storage. Real-time PCR was performed using ABM, BlasTaqTM 2X qPCR MasterMix, and the CFX Connect real-time system. […] DMSO, the solvent for dissolving the phenolic compounds, was used as the control group. The Qiagen GeneGlobe Complimentary qPCR Data Analysis Portal (Redwood City, CA, USA), utilizing default parameters, was employed to calculate changes in gene expression. CT values were exported from the BioRad CFX Connect real-time qPCR system and normalized against a reference gene. The p-value was derived from a Student's t-test applied to the replicate 2^-ΔΔCT values for each gene in the comparisons between the control and test groups. The p-value calculation employed was derived from a parametric, unpaired, two-sample equal variance, two-tailed distribution, a method that is widely recognized in the scientific literature. Fold change calculations, representing gene expression ratios, were determined using the established ΔΔCT method as initially described by Livak and Schmittgen. […] Multiple groups were compared by ANOVA and Dunnet post hoc test.

APOE = experiment: RT-PCR gene expression in SH-SY5Y cells; type: cell-based, human; conditions: 24 h at IC08, vs DMSO control, normalized to β-actin
Procedure: as §1

TNF = experiment: RT-PCR gene expression in SH-SY5Y cells; type: cell-based, human; conditions: 24 h at IC08, vs DMSO control, normalized to β-actin
Procedure: as §1

BIN1 = experiment: RT-PCR gene expression in SH-SY5Y cells; type: cell-based, human; conditions: 24 h at IC08, vs DMSO control, normalized to β-actin
Procedure: as §1

PICALM = experiment: RT-PCR gene expression in SH-SY5Y cells; type: cell-based, human; conditions: 24 h at IC08, vs DMSO control, normalized to β-actin
Procedure: as §1

ABCA7 = experiment: RT-PCR gene expression in SH-SY5Y cells; type: cell-based, human; conditions: 24 h at IC08, vs DMSO control, normalized to β-actin
Procedure: as §1

MMP9 = experiment: RT-PCR gene expression in SH-SY5Y cells; type: cell-based, human; conditions: 24 h at IC08, vs DMSO control, normalized to β-actin
Procedure: as §1

CD2AP = experiment: RT-PCR gene expression in SH-SY5Y cells; type: cell-based, human; conditions: 24 h at IC08, vs DMSO control, normalized to β-actin
Procedure: as §1

PSEN1 = experiment: RT-PCR gene expression in SH-SY5Y cells; type: cell-based, human; conditions: 24 h at IC08, vs DMSO control, normalized to β-actin
Procedure: as §1

CR1 = experiment: RT-PCR gene expression in SH-SY5Y cells; type: cell-based, human; conditions: 24 h at IC08, vs DMSO control, normalized to β-actin
Procedure: as §1

CCL5 = experiment: RT-PCR gene expression in SH-SY5Y cells; type: cell-based, human; conditions: 24 h at IC08, vs DMSO control, normalized to β-actin
Procedure: as §1

CLU = experiment: RT-PCR gene expression in SH-SY5Y cells; type: cell-based, human; conditions: 24 h at IC08, vs DMSO control, normalized to β-actin
Procedure: as §1

APP = experiment: RT-PCR gene expression in SH-SY5Y cells; type: cell-based, human; conditions: 24 h at IC08, vs DMSO control, normalized to β-actin
Procedure: as §1

CD33 = experiment: RT-PCR gene expression in SH-SY5Y cells; type: cell-based, human; conditions: 24 h at IC08, vs DMSO control, normalized to β-actin
Procedure: as §1

human recombinant BACE1 = human recombinant BACE1 (Homo sapiens, UniProt P56817); experiment: biochemical; type: biochemical; conditions: n: 3; for BACE1 Inhibition (Inhibition% ± SD): 10 mM stock concentration; for IC50: BACE1
Procedure: Fluorescence resonance energy transfer (FRET) technology was used to measure the enzymatic activity of BACE1, and measurements were performed by modifying previously used methods and the protocol included in the manufacturer’s (PanVera® Corporation, Madison, […], USA) assay kit. […] The inhibition rate was obtained using the following equation:Inhibition% = [1 − (B − B0)/(K − K0)] × 100
• K0 = fluorescence value of the control group at minute 0 • K = fluorescence value of the control group at 60 min • B0 = fluorescence value of the test compound at minute 0 • B = fluorescence value of the test compound at 60 min

BACT = experiment: RT-PCR gene expression in SH-SY5Y cells (reference gene); type: cell-based, human; conditions: 24 h at IC08, β-actin, the normalizing reference gene
Procedure: as §1

[1] = tested on: SH-SY5Y human neuroblastoma cells; type: cell-based; conditions: 24 h
Procedure: SH-SY5Y, a human neuroblastoma cell line (purchased from ATCC®, Cat. No. CRL-2266™), was maintained in Dulbecco’s Modified Eagle Medium/Nutrient Mixture F-12 (DMEM/F-12) complemented with 10% heat-inactivated fetal bovine serum (FBS) and 1% penicillin–streptomycin after being processed for 30 min at 56 °C. Cells were cultivated in a sterile incubator at 37 °C with 5% CO2 and 95% relative humidity.
Cells were maintained in Dulbecco’s Modified Eagle’s Medium (DMEM)/nutrient mixture F-12 (DMEM/F-12) containing 1% penicillin–streptomycin supplemented with 10% fetal bovine serum (FBS) heat-inactivated at 56 °C for 30 min. Cells were cultured in a sterile incubator at 37 °C with 5% CO2 and 95% humidity. Then, 10,000 SH-SY5Y cells in 100 µL of complete medium were seeded in each well of a 96-well plate and incubated for 16–24 h for surface attachment. […] Then, 10 µL of filter-sterilized 0.015% resazurin solution (Sigma-Aldrich, R7017) was added to each well and incubated for 2 h at 37 °C with 5% CO2. Excitation at 560 nm wavelength and emission fluorescence at 590 nm wavelength were measured, and cell viability% was calculated compared to the control group.

APP/PS1 transgenic mice = tested on: APP/PS1 transgenic mice; parameters: method as in PMID 32913125; conditions: 6 months at 20 mg/kg b.w.; cited from earlier work
[2] = read-out: IC50 (inhibitory effect against BACE1)
[3] = concentration with 8% inhibition (92% viability), SH-SY5Y, Mean ± SD

Chain of human recombinant BACE1 (P56817 46-501): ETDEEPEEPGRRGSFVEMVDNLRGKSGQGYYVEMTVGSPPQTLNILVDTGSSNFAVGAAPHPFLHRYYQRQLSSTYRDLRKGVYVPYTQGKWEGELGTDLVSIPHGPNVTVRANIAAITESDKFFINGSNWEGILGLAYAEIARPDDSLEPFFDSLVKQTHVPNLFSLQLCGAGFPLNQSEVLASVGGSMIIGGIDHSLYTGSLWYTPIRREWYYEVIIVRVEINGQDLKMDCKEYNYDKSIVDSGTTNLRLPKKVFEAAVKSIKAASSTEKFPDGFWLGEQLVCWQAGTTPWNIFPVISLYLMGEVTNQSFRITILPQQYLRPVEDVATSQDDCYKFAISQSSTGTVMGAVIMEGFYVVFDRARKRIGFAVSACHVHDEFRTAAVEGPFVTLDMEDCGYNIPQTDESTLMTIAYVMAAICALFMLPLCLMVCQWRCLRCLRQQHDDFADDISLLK

Compound	IC50 (BACE1; [2]) [µM]	Fold Regulation SORL1 (SORL1)	Fold Regulation APOE (APOE)	Fold Regulation TNF (TNF)	Fold Regulation BIN1 (BIN1)	Fold Regulation PICALM (PICALM)	Fold Regulation ABCA7 (ABCA7)	Fold Regulation MMP9 (MMP9)	Fold Regulation CD2AP (CD2AP)	Fold Regulation PSEN1 (PSEN1)	Fold Regulation CR1 (CR1)	Fold Regulation CCL5 (CCL5)	Fold Regulation CLU (CLU)	Fold Regulation APP (APP)	Fold Regulation CD33 (CD33)	BACE1 Inhibition (Inhibition% ± SD) (human recombinant BACE1) [%]	IC50 (human recombinant BACE1) [µM]	Fold Regulation BACT (BACT)	IC08 Values [1, 3] [µM]	IC08 Values ([1]; human) [µM]	further results
OCCc1ccc(O)c(O)c1 [3-Hydroxytyrosol, 3-hydroxytyrosol]	0.035 ± 0.04	1.81	−1.17	2.04	1.87	1.21	1.82	4.38	1.36	−1.08	2.86	3.61	1.15	−1.07	2.88	45.33 ± 0.22	> 10000	1.00	278 ± 12.21	–	BACE1 Inhibition (Inhibition% ± SD) (human recombinant BACE1; listed as 3-hydroxytyrosol): below 50%
O=C(O[C@@H]1Cc2c(O)cc(O)cc2O[C@@H]1c1cc(O)c(O)c(O)c1)c1cc(O)c(O)c(O)c1 [EGCG, epigallocatechin gallate]	–	–	–	–	–	–	–	–	–	–	–	–	–	–	–	–	–	–	103 ± 12.47	–	–
O=C(O)c1cc(O)c(O)c(O)c1 [Gallic acid, 3,4,5-trihydroxybenzoic acid]	–	1.65	−1.07	2.06	1.16	1.22	1.55	3.14	1.15	−1.11	2.20	1.92	−1.11	1.15	2.40	27.51 ± 2.97	–	1.00	187 ± 7.11	–	BACE1 Inhibition (Inhibition% ± SD) (human recombinant BACE1; listed as gallic acid): below 50%; spatial reference learning and memory impairment (APP/PS1 transgenic mice): totally reversed
C/C=C1/[C@H](O[C@@H]2O[C@H](CO)[C@@H](O)[C@H](O)[C@H]2O)OC=C(C(=O)OC)[C@H]1CC(=O)OCCc1ccc(O)c(O)c1 [Oleuropein, oleuropein]	2.76 ± 0.23	1.90	−1.33	2.09	−1.14	1.43	2.42	5.31	1.31	−1.07	3.45	2.67	−1.78	1.05	3.88	52.38 ± 2.08	9870 ± 1010	1.00	–	171 ± 22.01	–
O=c1c(O)c(-c2ccc(O)c(O)c2)oc2cc(O)cc(O)c12 [Quercetin, 3,3′,4′,5,7-pentahydroxyflavone, reference compound]	–	–	–	–	–	–	–	–	–	–	–	–	–	–	–	86.87 ± 4.48	–	–	27 ± 5.30	–	–
O=C(/C=C/c1ccc(O)c(O)c1)O[C@H](Cc1ccc(O)c(O)c1)C(=O)O [Rosmarinic acid, rosmarinic acid]	–	1.23	1.45	1.75	1.33	1.32	−1.07	3.02	1.08	1.55	1.34	1.82	1.11	1.01	1.88	67.04 ± 0.64	4060 ± 680	1.00	–	546 ± 31.55	IC50 (BACE1; read-out: IC50 (BACE1 inhibitory potential)): 21 µM
